In PubChem BioAssay (NCI):
Where “and” joins values, the source holds several entries; their conditions need not be identical. Identical values can stand only once.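 Dose response: 5 concentrations. Exposure: 48 h. Format: 96-well plates. Endpoint: linear interpolation; highest concentration if not reached. GI50: concentration for 50% inhibition of growth. TGI: concentration producing complete growth inhibition.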

Columns and labels:
Experiment in all cases: growth of human tumour cells (NCI), 48 h
PC-3 prostate = system: PC-3 prostate
DMS 273 small cell lung = system: DMS 273 small cell lung
SNB-78 CNS = system: SNB-78 CNS
M19-MEL melanoma = system: M19-MEL melanoma
KM20L2 colon = system: KM20L2 colon
DLD-1 colon = system: DLD-1 colon
LXFL 529 NSCLC = system: LXFL 529 NSCLC
MDA-N = system: MDA-N
RXF-631 renal = system: RXF-631 renal

SMILES	GI50 (PC-3 prostate)	TGI (PC-3 prostate)	TGI (DMS 273 small cell lung) [µM]	TGI (SNB-78 CNS) [µM]	TGI (M19-MEL melanoma) [µM]	TGI (KM20L2 colon) [µM]	TGI (DLD-1 colon) [µM]	TGI (LXFL 529 NSCLC) [µM]	other results
COC(=O)C12CC(NC(=O)c3csc([C@@H](C[C@H](C(C)C)N(C)C(=O)[C@@H](NC(=O)[C@H]4CCCCN4C)C4CC4)OC(C)=O)n3)(C1)C2	0.0366 µM	> 16.7 µM	–	–	–	–	–	–	–
CN(C)c1nc(=NCc2ccco2)ss1	–	30.5 µM	> 34.6	> 100	> 43.6	> 100	46.1	> 100	TGI (MDA-N): 33.7 µM
CN1CCN(CCOc2ccc(-c3cnc4c(-c5cccc(F)c5)cnn4c3)cc2)CC1	1.92 µM	4.39 µM	–	–	–	–	–	–	–
COC(=O)C(CCC(=O)CCl)N1C(=O)c2ccccc2C1=O (stereo unspecified)	–	26.5 µM	–	–	–	–	–	–	TGI (MDA-N): 23.9 µM
O=C(O)c1cc(=O)c2c([nH]c3ccccc32)s1	–	–	–	> 100	> 100	> 100	> 100	> 100	TGI (RXF-631 renal): > 100 µM
O=C(Nc1ccc(-n2ccc3c(NC(=O)c4ccccc4)ncnc32)cc1)c1cccc(C(F)(F)F)c1	3.3 µM	34 µM	–	–	–	–	–	–	–
CCOc1ccc2c(c1)C(=O)c1c-2n(CCCBr)c(=O)c2cc([N+](=O)[O-])ccc12	> 100 µM	> 100 µM	–	–	–	–	–	–	–
CC1=C2C(=CC(C)(C)[C@@H]2O)C(=O)[C@](C)(O)C12CC2	–	0.164 µM and 0.0194 µM	0.0189	–	0.163	0.0744	0.0825	0.0927	GI50 (MDA-N): 0.0126 µM; TGI (MDA-N): 0.0424 µM and 0.0278 µM
CC(C)c1nc(N(C)S(C)(=O)=O)nc(-c2ccc(F)cc2)c1/C=C/[C@@H](O)C[C@@H](O)CC(=O)O	41.7 µM	> 100 µM	–	–	–	–	–	–	–
COc1cccc(CN(C)c2ccc(CO)c(Cl)c2)c1	30.6 µM	> 100 µM	–	–	–	–	–	–	–
CCCn1cnc2c(SCC(=O)O)nc(N)nc21	–	> 100 µM	–	–	–	–	–	–	TGI (MDA-N): > 100 µM
CCN(Cc1cc(F)ccc1F)c1ccc(CO)c(Cl)c1	13.4 µM	32.4 µM	–	–	–	–	–	–	–
Cc1cc(Cl)ccc1OCC(=O)Nc1nc(N)nc(N)n1	–	> 100 µM	–	–	–	–	–	–	TGI (MDA-N): > 100 µM
C[Si](C)(c1ccc(C(=O)O)cc1)c1ccc(C(=O)O)cc1	–	> 100 µM	–	–	–	–	–	–	TGI (MDA-N): > 100 µM
COC(=O)c1cc2c(cc1Cl)SC1=NN(C)S(=O)N1S2(=O)=O (stereo unspecified)	> 100 µM	> 100 µM	–	–	–	–	–	–	–
CCOC(=O)CN(Cn1cncn1)Cn1cncn1	–	–	39.8	> 100	> 100	51.7	> 100	> 100	–
CNc1ccc2ncccc2c1[N+](=O)[O-]	–	–	> 100	> 100	> 100	> 100	> 100	> 100	TGI (RXF-631 renal): > 100 µM
CCn1c(-c2cc3c([nH]c4ccccc43)c(-c3cccc(O)c3)n2)n[nH]c1=S	2.77 µM	13.3 µM	–	–	–	–	–	–	–
N#C/C(=C\c1cccc(O)c1O)C(N)=O	–	–	> 100	> 100	> 100	> 100	> 100	> 100	TGI (RXF-631 renal): > 100 µM

SMILES	GI50 (PC-3 prostate)	TGI (PC-3 prostate)	TGI (DMS 273 small cell lung) [µM]	TGI (SNB-78 CNS) [µM]	TGI (M19-MEL melanoma) [µM]	TGI (KM20L2 colon) [µM]	TGI (DLD-1 colon) [µM]	TGI (LXFL 529 NSCLC) [µM]	other results
COc1ccc(Nc2nc3ccccc3c3occc23)cc1	12.9 µM	> 50 µM	–	–	–	–	–	–	–
Cl/C(N=Nc1ccccc1)=N/Nc1ccccc1	–	–	> 100	> 100	> 100	> 100	–	> 100	TGI (RXF-631 renal): > 100 µM
COc1ccc(-c2cc(C(=O)Nc3cc(C(F)(F)F)cc(C(F)(F)F)c3)c3ccccc3n2)cc1	–	–	21.1	52.1	63	31.4	43.6	20.9	–
Cn1cccc1-c1cc(-c2ccccc2)[nH]c(=O)c1C#N	> 100 µM	> 100 µM	–	–	–	–	–	–	–
[O-]c1ccccc1C=Nc1ccc2c(c1)CCC2.[O-]c1ccccc1C=Nc1ccc2c(c1)CCC2.[O]=[U+2]=[O]	–	–	> 100	> 100	> 100	> 100	> 100	> 100	GI50 (RXF-631 renal): > 100 µM; TGI (RXF-631 renal): > 100 µM; GI50 (DMS 273 small cell lung): 14.2 µM; GI50 (SNB-78 CNS): > 100 µM; GI50 (M19-MEL melanoma): > 100 µM; GI50 (KM20L2 colon): 56.6 µM; GI50 (DLD-1 colon): 27.8 µM; GI50 (LXFL 529 NSCLC): 28.4 µM
CN(C)/C=N\c1ccnc(=O)[nH]1	–	–	> 100	> 100	> 100	> 100	> 100	> 100	TGI (RXF-631 renal): > 100 µM
Cc1cc(C)c2c(n1)sc1c(N)ncnc12	> 25 µM	> 25 µM	–	–	–	–	–	–	–
Cc1ccc2nc(-c3ccc(OCC(=O)N=Nc4c(O)[nH]c5ccccc45)cc3)[nH]c2c1	1.74 µM	3.65 µM	–	–	–	–	–	–	–
O=C(/C=C/c1ccc(O)c(O)c1)NCc1c[nH]c2ccccc12	71.3 µM	> 100 µM	–	–	–	–	–	–	–
CN(Cc1ccc(C(F)(F)F)cc1)CC(O)C(=O)Nc1ccc(Cl)cc1 (stereo unspecified)	1.77 µM	3.21 µM	–	–	–	–	–	–	–
O=[N+]([O-])c1nccn1CC(O)CN1CCCCC1 (stereo unspecified)	–	> 100 µM	–	–	–	–	–	–	TGI (MDA-N): > 100 µM
Cc1c2c(cc3c1C(=O)C(=O)C1=C3OC[C@@H]1C)C(C)(C)CCC2	–	–	28.5	–	6.68	44.5	59.5	37.6	–
Cc1nc2ccc(Br)cc2c(=O)n1-c1ccc(NC2OCC(O)C(O)C2O)cc1 (stereo unspecified)	18.5 µM and > 100 µM	86.9 µM and > 100 µM	–	–	–	–	–	–	GI50 (MDA-N): 43.9 µM and > 100 µM; TGI (MDA-N): > 100 µM
O=C1C(=O)N(c2ccc(Cl)cc2)C(=O)C(=O)C1c1nc2ccccc2s1	–	–	> 100	> 100	> 100	> 100	–	> 100	–
COc1ccc2c(c1OC)-c1c(c3ccc([N+](=O)[O-])cc3c(=O)n1CCCBr)C2=O	18.1 µM	> 100 µM	–	–	–	–	–	–	–
CC1CN(S(=O)(=O)c2oc(-c3ccc(Cl)cc3)nc2C#N)CC(C)O1 (stereo unspecified)	1.97 µM	4.04 µM	–	–	–	–	–	–	–
CCCCCCCCOC(=O)c1c(C)[nH]c(/C=C2\N=C(c3ccc[nH]3)C=C2OC)c1C	0.0467 µM	> 34.8 µM	–	–	–	–	–	–	–
O=C1OC(c2ccccc2)=N/C1=C\c1ccc(Oc2ccc(Cl)c(Cl)c2)cc1	–	–	–	85.7	> 100	> 100	> 100	85.6	–
NNc1cnn(-c2ccccc2)c(=O)c1Cl	–	–	> 100	> 100	> 100	> 100	> 100	> 100	–
